Earlier results in US20110027361A1, “EXTENDED RELEASE DOSAGE FORM OF PALIPERIDONE” (TORRENT PHARMACEUTICALS LTD., priority 2008, published 2011).

Columns and labels:
[1] = in vivo

For `Cc1nc2n(c(=O)c1CCN1CCC(c3noc4cc(F)ccc34)CC1)CCCC2O` (stereo not shown) [Paliperidone], the “solubility in 0.1N HCl” value (0.1N HCl) is listed as “sparingly soluble”, the “solubility in methylene chloride” value (methylene chloride) is listed as “sparingly soluble” and the solubility in water (water) is listed as “practically insoluble”. For the same molecule, the terminal elimination half-life [1] was “approximately 23 hours”.
